Measurements reported in patent US10253002B2, “Compounds and methods of treating infections” (Neoculi Pty Ltd., priority 2013, dated 2019).
Read-outs that look alike come from different tables or passages of the source.

Key:
[1] = test system: methicillin-resistant Staphylococcus aureus (MRSA); assay: Broth microdilution MIC (CLSI), Example 1; format: cell-based; conditions: Staphylococcus aureus, MRSA, Test 1, read-out: MIC
Method: (§1) Cation adjusted Mueller Hinton Broth (CAMHB) was prepared using 100 mL sterile Mueller Hinton broth (pH adjusted). To each 100 mL volume, 125 μL of calcium stock solution (10 mg Ca^2+ per ml) and 43 μL magnesium stock solution (10 mg Mg^2+ per mL) was aseptically added. Sufficient broth is made up for daily use, with unused portions being stored at 4° C. overnight.
(§2) Potency was described as 1000 mg/g or 100%. The powder was dissolved in 10 mL DMSO and 1 mL volumes were aliquoted into eppendorf tubes and stored at −80° C.
For Staphylococcus aureus, a working solution of 256 μg/mL was prepared by diluting stock solutions as described above 1:100 in CAMHB (100 μL into 9.9 mL).
(§3) Serial dilutions were prepared in 96 well plates were set up in a safety cabinet according to methods standard in the art. Briefly: 90 μL of the working antibiotic solution was added to each well in Column 12 of the plate, and mixed well, before 90 μL was transferred to column 11. The solutions were mixed again, and then transferred to the next column as before, continuing the dilutions through to column 3. Mixing the well requires the pick up and expulsion of 90 μL in each well 3-4 times before picking up and transferring the 90 μL to the next well. […] The trays were set up as follows: 2 strains were tested in duplicate in one tray, such that strain 1 was located in rows A to D, strain 2 was located in rows E to H, etc.
(§4) Fresh cultures of bacteria were prepared for testing on sheep blood agar (SBA), and overnight incubation at 37° C. as follows; 2-3 colonies of each strain in 7 mL sterile saline, and the OD600 measured as an indication of the density (approx. […] or 0.5 McFarland Standard). The bacterial suspension was adjusted to a final absorbance of 0.08 to 0.100, using saline to achieve correct density, and as the blank. Within 15 minutes of preparation, the adjusted bacterial suspension with sterile saline 1:20 (1 mL into 19 mL sterile saline) to achieve a final bacterial concentration of 4 to 5×10^6 CFU/mL. The bacterial solution was placed into a sterile trough and 10 μL of bacterial solution added into wells 2 through to 12 on each required row (dilution of 1:10, with final concentration of bacteria in wells=5×10^5 CFU/mL). The tray was sealed and incubated at 37° C. for 18-24 h. The purity of bacterial suspension was confirmed by streaking out 50 μL of the 1:20 dilution onto a SBA plate, which was incubated for 37° C. for 18 h and examined. Viable counts were carried out to ensure that the correct concentration of bacteria and been added to the wells. The diluted bacterial solution (4 to 5×10^6 CFU/mL) was diluted 1:10 downwards by adding 100 μL to 900 μL of sterile saline in sterile tubes, and the serial dilutions continued 1:10 for 5 tubes. 100 μL (4-5 drops) of the 4th and 5th dilutions (tube 4=105 and tube 5=10^6 CFU/ml) was plated around in duplicate on pre-dried PCA agar plates and incubated at 37° C. overnight. The following day the number of colonies on the plates was counted and the average count in 100 μL obtained. The study was multiplied by 10 to obtain a viable bacterial count per mL.
(§5) Minimum inhibitory concentrations (μg/mL) were determined using the broth microdilution method recommended by the Clinical and Laboratory Standards Institute (CLSI) (Methods for Dilution Antimicrobial Susceptibility Tests for Bacteria That Grow Aerobically; Approved Standard—Seventh Edition. CLSI M7-A7, 2006; Performance Standards for Antimicrobial Disk and Dilution Susceptibility Tests for Bacteria Isolated from Animals; Approved Standard—Second Edition. CLSI M31-A2, 2002; Performance Standards for Antimicrobial Susceptibility Testing; CLSI M2-A9, 2006).
MIC breakpoints were determined by visual assessment and then confirmed using an ELISA plate reader, measuring absorbance levels at 450 nm.

[2] = test system: vancomycin-resistant Enterococcus spp. (VRE); assay: Broth microdilution MIC (CLSI), Example 1; format: cell-based; conditions: for MIC90: Enterococcus isolates of Table 4; for MIC: Enterococcus, VRE, read-out: MIC
Method: as §1, §2, §3, §4, §5
MIC breakpoints were determined by visual assessment and then confirmed using an ELISA plate reader, measuring absorbance levels at 450 nm. Bacterial growth (turbidity) in the wells with antimicrobial was compared with the amount of growth (turbidity) in the growth-control well (containing no antimicrobial).

N=C(N/N=C/c1ccc(Cl)cc1)N/N=C/c1ccc(Cl)cc1 [NCL812, 1,3-bis[(E)-(4-chlorophenyl)methyleneamino]guanidine]
2 to 4 µg/mL: MIC range ([2]; E. faecalis, 4 isolates) | MIC range ([2]; E. faecium, 16 isolates)
4 µg/mL: MIC90 ([2]; Test 1) | MIC90 ([2]; Test 2)
2 µg/mL: MIC ([2]; B09/2087, Test 1) | MIC ([2]; Enterococcus 011, Test 1) | MIC ([2]; Enterococcus 012, Test 1) | MIC ([2]; Enterococcus 012, Test 2) | MIC ([2]; Enterococcus 013, Test 1) | MIC ([2]; Enterococcus 013, Test 2) | MIC ([2]; VRE 001, Test 1) | MIC ([2]; VRE 001, Test 2) | MIC ([2]; VRE 003, Test 1) | MIC ([2]; VRE 003, Test 2) | MIC ([2]; VRE 005, Test 1) | MIC ([2]; VRE 005, Test 2) | MIC ([2]; VRE 006, Test 1) | MIC ([2]; VRE 006, Test 2)
8 µg/mL: MIC ([1]; MRSA 616) | MIC ([1]; MRSA 747)
